Reference: PubChem BioAssay (NCI)
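How tested: cells in 96-well plates exposed to compound for 48 hours at five concentrations. GI50 is the concentration that inhibits growth by half. TGI is the concentration that stops growth completely.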

Key:
Assay in all cases: inhibition of tumour cell growth, NCI panel, 48 h
HS 578T breast = tested on: HS 578T breast
SR leukemia = tested on: SR leukemia
HCT-116 colon = tested on: HCT-116 colon
K-562 leukemia = tested on: K-562 leukemia
OVCAR-4 ovarian = tested on: OVCAR-4 ovarian
KM12 colon = tested on: KM12 colon
CCRF-CEM leukemia = tested on: CCRF-CEM leukemia
U251 CNS = tested on: U251 CNS
MCF7 breast = tested on: MCF7 breast
HCT-15 colon = tested on: HCT-15 colon

Structure (SMILES)	GI50 (HS 578T breast) [µM]	TGI (HS 578T breast) [µM]	GI50 (SR leukemia) [µM]	TGI (SR leukemia) [µM]	GI50 (HCT-116 colon) [µM]	TGI (HCT-116 colon) [µM]	GI50 (K-562 leukemia) [µM]	TGI (K-562 leukemia) [µM]	GI50 (OVCAR-4 ovarian) [µM]	TGI (OVCAR-4 ovarian) [µM]	GI50 (KM12 colon) [µM]	GI50 (CCRF-CEM leukemia) [µM]	GI50 (U251 CNS) [µM]	TGI (U251 CNS) [µM]	GI50 (MCF7 breast) [µM]	TGI (MCF7 breast) [µM]	GI50 (HCT-15 colon) [µM]	TGI (HCT-15 colon) [µM]	TGI (KM12 colon) [µM]	TGI (CCRF-CEM leukemia) [µM]
NCCCN1CCN(CCCNc2nc3ccccc3c3[nH]c4ccccc4c23)CC1	0.521	2.89	0.352	71.9	0.337	2.7	0.0715	43.1	0.414	1.77	0.415	0.385	0.373	4.54	0.181	1.33	0.436	7.83	–	–
COC(=O)[C@]12CC[C@@H](C)[C@H](C)[C@@H]1C1=CC[C@@H]3[C@@]4(C)C(C=O)=C[C@@](C)(COS(C)(=O)=O)C4[C@H](O)C[C@@]3(C)[C@]1(C)CC2 (stereo partly specified)	3.12	8.77	0.299	1.38	1.1	2.57	0.797	6.28	1.84	6.06	1.83	0.782	1.65	3.17	1.19	3.63	1.34	2.87	3.96	3.22
CCOc1nccc2c1nc(-c1nonc1N)n2CC	> 25	> 25	–	–	> 25	> 25	> 25	> 25	> 25	> 25	> 25	> 25	> 25	> 25	> 25	> 25	> 25	> 25	> 25	> 25
CC(C)C[C@H](NC(=O)CCn1ccc2ncccc2c1=O)B(O)O	13.2	> 71.7	3.08	> 100	3.64	19	13.2	> 100	24.9	> 100	14.6	0.308	24.9	> 100	3.88	> 100	28.1	> 100	37.7	> 26.5
O=C(CNc1ccc2c(=S)c3ccccc3[nH]c2c1)Nc1ccccc1-c1ccccc1NC(=O)CNc1ccc2c(=S)c3ccccc3[nH]c2c1	–	> 77.7	–	41.1	–	43.3	–	> 53.6	–	45.2	–	–	–	42.3	–	> 52.7	–	49.5	42.7	22.8
Cc1cc(N(CCCNc2ccnc3cc(Cl)ccc23)Cc2ccc3c(c2)OCO3)nc(N2CCCCC2)n1	1.78	4.25	1.41	4.14	1.35	3.28	–	–	1.93	6.45	2.15	2.92	2.06	4.65	1.77	4.84	1.42	3.05	5.39	> 100
O=C(COc1cccc(/C=C2\Oc3ccc4ccccc4c3C2=O)c1)c1ccc(Cl)cc1	50	> 100	–	–	2.97	10.5	10.8	25.5	5.56	> 100	30.2	2.92	27.2	> 100	10.7	22.6	33	> 100	> 100	8.39
N#C/C(=C\c1c(-c2ccccc2)[nH]c2ccccc12)C(=O)c1ccccc1	6.26	40.5	–	–	5.29	> 100	> 100	> 100	65.3	> 100	1.96	7.27	4.73	27.4	3.95	> 100	3.53	> 100	19.4	> 100
Clc1ccc(CNc2nccc(-c3cnn4ncccc34)n2)cc1	7.78	> 23.5	–	–	7.92	> 25	10.6	> 25	7.47	> 25	5.55	9.69	6.73	> 25	5.91	> 25	8.5	> 25	15.5	> 25
C=C(CNC(=O)c1ccccc1)c1ccc(C(=O)Nc2ccccc2N)cc1	20	> 100	–	–	1.6	15.2	1.26	> 100	11.6	> 100	5.11	0.493	5.43	74.5	3.2	> 100	8.14	> 100	> 100	8.38
N#Cc1nc2c(S(=O)(=O)c3ccccc3)c(N)n(Cc3ccc(Cl)cc3)c2nc1C#N	7.08	23.4	9.72	> 50	17.9	> 50	> 50	> 50	17.8	> 50	17.1	–	8.09	18.3	7.38	> 50	24.2	> 50	> 50	–
COc1cc(F)c(/C=C/c2cc(/C=C/c3cc(OC)c(OC)cc3F)n(-c3cc(F)cc(F)c3)n2)cc1OC	4.04	18.9	–	–	3.13	13.1	3.08	> 100	1.97	5.75	3.3	37.5	1.69	3.15	2.99	17.3	2.84	9.05	12.8	> 100
OCC(CCc1c[nH]c2ccccc12)c1c[nH]c2ccccc12 (stereo unspecified)	–	48.6	–	41.5	–	29.2	–	67.6	–	42.9	–	–	–	30.4	–	35	–	32.2	32.5	–
